Where two headings read alike, the source gives them in different places.
Key:
[1] = target: T1, Dehal1 (Homo sapiens, UniProt Q6PHW0); assay: In vitro Dehal1 inhibition assay (inhibition of 125I-MIT deiodination in homogenates of DEHAL1-transfected HEK293 cells); type: biochemical
T1 construct: expressed in transfected cells; host or cells: HEK293
T1 sequence (Q6PHW0 1-289): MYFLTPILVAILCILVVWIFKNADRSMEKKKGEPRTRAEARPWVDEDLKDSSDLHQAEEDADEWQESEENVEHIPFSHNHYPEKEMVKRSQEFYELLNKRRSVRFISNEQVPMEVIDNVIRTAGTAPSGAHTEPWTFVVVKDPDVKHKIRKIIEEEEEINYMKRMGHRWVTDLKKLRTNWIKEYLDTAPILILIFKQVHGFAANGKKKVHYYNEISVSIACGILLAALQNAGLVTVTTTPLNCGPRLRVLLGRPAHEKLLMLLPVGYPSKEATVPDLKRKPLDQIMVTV
Procedure: Human embryonic kidney (HEK293) cells were grown in Dulbecco's modified Eagle medium (Gibco) supplemented with 10% fetal calf serum and 0.1 mM flavin mononucleotide (FMN, MP Biochemicals) in 6-well plates. At 50% confluency, cells were transfected with 1 µg of wild-type or mutant DEHAL1 plasmid or empty pcDNA3.1 plasmid, using Fugene6 (Roche). After 24 h incubation, cells were washed with 1 ml PBS and collected in 0.5 ml PED buffer (0.1 M phosphate, pH 7.2, 2 mM EDTA, 1 mM dithiothreitol) per well and kept on ice. Samples were sonicated twice for 10 sec using Soniprep150, frozen on dry ice-ethanol and stored at -80 °C. For experiments testing FMN-response, culture medium was supplemented with 0-2 mM FMN.
The experiments follow described methods to determine the MIT deiodination capacity of Dehal1-transfected cells (8), adding the candidate chemicals to test their capacity to inhibit such reaction. Basically, labelled [^125I]MIT was prepared by radioiodination of L-tyrosine (Sigma-Aldrich) with ^125I - (specific activity: 15 Ci/mg, Amersham Biosciences) using the chloramine-T method and purified by chromatography on cation-exchange resin (Dowex 50WX2-200, Sigma-Aldrich). […] Incubations contained […] [^125I]MIT, 0.1 µM unlabeled MIT and 10-25 µg cell homogenate protein in a final volume of 0.1 ml PED buffer. Reactions were started by the addition of NADPH (final concentration 0.1 mM), and the mixtures were incubated for 60 min at 37°C. Reactions were stopped by the addition of 0.9 ml of 10% acetic acid on ice. Samples were applied to 2 ml Dowex 50WX2-200 columns, and successively eluted with 3x1 ml 10% acetic acid (containing eluted iodide), 1 ml water, and 4×1ml 1 M NH4OH (containing iodotyrosines). Radioactivity was measured in each fraction in a NE1600 gamma counter (NE Technologies) and percentage deiodination was calculated. Protein concentrations in cell homogenates were measured by Bradford's assay; iodotyrosine deiodinase activity was corrected for the slight 1251 - production in empty pcDNA3.1-transfected cell homogenates and expressed per mg protein.
For the general screen of inhibition potential of each compound, 10 µM unlabeled chemicals tested (Sigma-Aldrich) were added to the incubation mixture together with […] unlabeled MIT with no further modifications on the protocol above. Said chemical tested were: Tetrabromobisphenol A (TBBPA), Bisphenol A (BPA), Pentachlorophenol (PCP), tetraiodophenol (TIP), Tetrabromophenol (TBP), tetrachlorophenol (TCP), tetraafluorophenol (TFP), Di-iodo-nitro-Pheol (DINP), Di-chloro-nitrophenol (DCNP), Dibromophenol (DBP), Diclorophenol (DCP), iodophenol (IP), Bromophenol (BP), Fluorophenol (FP), phenol (P), Tyrosien(Tyr), mononitrotyrosine (MNT), monochlorotyrosine (MCT), Monoiodotyrosine (MIT), Diiodotyrosine (DIT). As negative controls: empty pcDNA-transfected cells, DMSO, NaOH and Buffer.
Crude deiodination capacity obtained in individual chemical-containing mixture was calculated, including the vehicle (DMSO)-containing mixture. Percentage inhibition of each compound was determined with respect to the vehicle containing mixture. For inhibition curves of particular compounds, equimolar concentrations of unlabeled MIT (0, 0.1, 1, 10, 100 µM) and BPA, TBBPA, PCP and MNT were used, and % inhibition of individual compounds was calculated as above.

[2] = test system: thyroid hormone axis; assay: In vivo administration to mice: hormonal and biochemical effects in plasma and urine; settings: for UIC / UIC % variation: urine
Procedure: Mice. Female wild type mice from C57BI/6 J strain were purchased from Charles River company. Animals were maintained under standard conditions of temperature (22-24°C), humidity (40-50%), 12-12 hours of dark/light cycle, water and rodent diet ad libitum. Five months old female mice were acclimatized prior to the experiment and handled based on animal bioethical protocols. The experimental procedures were approved by the Research Ethical Committee of the Autonomous University of Madrid and the competent department of Comunidad de Madrid. Tetrabromobisphenol A powder (TBBPA, 97% purity) obtained through Sigma-Aldrich was dissolved in a vehicle containing 25% ethanol and 75% of peanut oil. A TBBPA dose of 500 mg/kg of body weight was injected subcutaneously for 7 days. Blood and urine collection were performed at the end of the experiment (Fig. 1).
Blood, urine and tissue collection. At day 7, blood was collected from cardiac puncture in heparinized tubes and centrifuged (2000 g for 10 minutes) to isolate plasma. Urine was collected using hydrophobic sand (Coastline Global, USA). Samples were kept at -20°C until used. For tissue isolation, mice were kept under deep anesthesia (Sevorane) and euthanized by cervical dislocation.
Previously published methods were modified to allow the simultaneous quantification of MIT, DIT, T3, T4.
Sample preparation: 100 µL of urine/plasma were added with suitable amounts of stable isotope-labeled internal standards (5.4 pmol 13C9-MIT, 4.0 pmol 13C9-DIT, 2.8 pmol 13C6-T3, 2.4 pmol 13C6-T4), vortexed, stored 30 min at room temperature to equilibrate, and deproteinized with the addition of 300µL of cold-acetone and the storage at 4°C for 30 min. After centrifugation at 22780 × g for 10 min, supernatants were dried at 40 °C under a gentle stream of nitrogen, derivatized with 200 µL of 3.0 N hydrochloric acid in n-butanol and incubated for 45 min at 60 °C, for the formation of the corresponding butyl esters of tyrosines, thyroid hormones, and their internal standards. After further evaporation to dryness, the sample was reconstituted with 500 µL of 0,1 M potassium buffer (pH=4) and loaded onto Agilent (Santa Clara, CA, USA) Bond-Elut Certify 130 mg SPE cartridges, to perform the extraction according to the procedure described by Saba et al.. The eluate was dried once again under nitrogen, the dried residue was reconstituted with 100 µL of acetonitrile/0.1 M hydrochloric acid (50/50 by volume), and 1µL of it was injected into the HPLC-MS-MS system. Calibration curves ranged from 0.1 to 100.0 ng/mL and were daily prepared by serial dilution in methanol and derivatized with samples.
Instrument layout: AB-Sciex (Concord, Ontario, Canada) QTRAP 6500+ triple quadrupole mass spectrometer with ESI source, coupled to an Agilent (Santa Clara, CA, USA) 1290 UHPLC system, fitted with a 110 Å, 2x50 mm, 3µm particle size, Gemini C18 column (Phenomenex, Torrance, CA).
Operative conditions: the chromatographic separation was carried out at 400 µL/min as a flow rate, using methanol/acetonitrile (20/80, by volume) added with 0.1% formic acid (solvent A) and water containing 0.1% formic acid (solvent B). The elution gradient was the following: 95 % solvent B from 0 to 3 min; 35 % solvent B from 3 to 8.5 min; 0 % solvent B from 8.5 to 9 min; 0 % solvent B from 9 to 11 min; 95 % solvent B from 11 to 14 min (equilibration step). […] Three transitions were used to monitor each compound and internal standard: that one with the highest signal/noise ratio was used as a quantifier (Q), while the other two as qualifiers (q).

[3] = general screen, compound at 10 µM
[4] = dose-response inhibition assay, 0-100 µM
[5] = TBBPA 500 mg/kg b.w/day subcutaneously for 7 days
[6] = TBBPA 500 mg/kg b.w/day subcutaneously for 7 days, plasma
[7] = vs WT, TBBPA 500 mg/kg b.w/day for 7 days
[8] = vs WT, TBBPA 500 mg/kg b.w/day for 7 days, plasma
[9] = read-out: inhibition of Dehal1 activity
[10] = MNT 1mg/Kg b.w./day, for 7 days
[11] = vs WT, MNT 1mg/Kg b.w./day, for 7 days

Q: Which “inhibition of labeled-MIT deiodination” value [1, 3] does the source give for `N[C@@H](Cc1cc(I)c(O)c(I)c1)C(=O)O` [DIT, Diiodotyrosine, reference compound] here?
A: maximal inhibition

Q: `CC(C)(c1cc(Br)c(O)c(Br)c1)c1cc(Br)c(O)c(Br)c1` [TBBPA, Tetrabromobisphenol A] was tested. Which IC50 [1, 4] did it give?
A: ~25 µM

Q: And the inhibition at 10 µM ([1]; dose-response inhibition assay, 10 µM, read-out: inhibition of Dehal1 activity)?
A: 18%

Q: And the inhibition at 100 µM ([1]; dose-response inhibition assay, 100 µM, read-out: inhibition of Dehal1 activity)?
A: 78%

Q: What about the inhibition at 10 µM ([1]; general screen, compound at 10 µM, read-out: inhibition of labeled-MIT deiodination) of the same molecule?
A: 37%

Q: And the T3 ([2]; TBBPA 500 mg/kg b.w/day for 7 days, plasma)?
A: remained unchanged

Q: What about the DIT-plasma [2, 5] of the same molecule?
A: 0.06 ± 0.01 ng/mL

Q: What about the DIT-urine [2, 5] of the same molecule?
A: 0.23 ± 0.04 ng/mL

Q: What about the MIT-plasma [2, 5] of the same molecule?
A: 0.21 ± 0.01 ng/mL

Q: What about the MIT-urine [2, 5] of the same molecule?
A: 2.53 ± 0.11 ng/mL

Q: And the MIT/DIT plasma [2, 5]?
A: 3,5

Q: What about the MIT/DIT urine [2, 5] of the same molecule?
A: 11

Q: What about the T4 [2, 6] of the same molecule?
A: 14.45 ± 1.65 ng/mL

Q: And the TSH [2, 6]?
A: 1.3 ± 0.025 mU/L

Q: And the UIC [2, 5]?
A: 170.6 ± 13.9 µg/L

Q: And the DIT-plasma % variation [2, 7]?
A: -62%

Q: And the DIT-urine % variation [2, 7]?
A: -36%

Q: And the MIT-urine % variation [2, 7]?
A: +73%

Q: What about the “MIT/DIT plasma % variation” value [2, 7] of the same molecule?
A: +250%

Q: What about the “MIT/DIT urine % variation” value [2, 7] of the same molecule?
A: +172%

Q: What about the T4 % variation [2, 8] of the same molecule?
A: -38%

Q: What about the TSH % variation [2, 8] of the same molecule?
A: +23%

Q: What about the UIC % variation [2, 7] of the same molecule?
A: +127%

Q: For `Oc1c(Cl)c(Cl)c(Cl)c(Cl)c1Cl` [PCP, Pentachlorophenol], which IC50 [1, 4] is on record?
A: ~25 µM

Q: What about the inhibition at 10 µM [1, 9] of the same molecule?
A: 22%

Q: And the inhibition at 100 µM [1, 9]?
A: 78%

Q: What about the inhibition at 10 µM ([1]; read-out: inhibition of labeled-MIT deiodination) of the same molecule?
A: 55%

Q: For `CC(C)(c1ccc(O)cc1)c1ccc(O)cc1` [BPA, Bisphenol A, reference compound], which inhibition capacity [1, 4] is on record?
A: no inhibition capacity

Q: `N[C@@H](Cc1ccc(O)c(I)c1)C(=O)O` [MIT, Monoiodotyrosine, reference compound] was tested. Which “inhibition of labeled-MIT deiodination” value [1, 3] did it give?
A: maximal inhibition

Q: What does the source list for `N[C@@H](Cc1ccc(O)c([N+](=O)[O-])c1)C(=O)O` [MNT, 3-L-nitrotyrosine, reference compound]?
A: IC50 [1, 4]: < 0.01 µM; inhibition of labeled-MIT deiodination [1, 3]: maximal inhibition; DIT-urine [2, 10]: 0.29 ± 0.06 ng/mL; MIT-urine [2, 10]: 1.94 ± 0.13 ng/mL; MIT/DIT urine [2, 10]: 6,69; T3 [2, 10]: 0.27 ± 0.02 ng/mL; T4 [2, 10]: 25.35 ± 1.2 ng/mL; TSH [2, 10]: 1.07 ± 0.07 mU/L; UIC [2, 10]: 198 ± 14.43 µg/L; DIT-urine % variation [2, 11]: -19%; MIT-urine % variation [2, 11]: +46%; MIT/DIT urine % variation [2, 11]: +80%; T3 % variation [2, 11]: -5%; T4 % variation [2, 11]: +8%; TSH % variation [2, 11]: +7%; UIC % variation [2, 11]: +47%
